Entries after “also recorded” stand apart in the source; their conditions may differ.

What all share (format): in vivo, mouse
In one test the test system is C57Bl/6 and SCID mice. Kind of test: Ad libidum and fasting blood glucose levels in wild-type mice. The conditions noted are these: 6 weeks of twice-weekly s.c. VEGF Trap vs human Fc (FIG. 6).
For another test, the system named is IRS-2. As to the kind of experiment: Western blot of liver extracts: hepatic IRS-2 protein. The conditions noted are these: livers from VEGF Trap-treated mice (FIG. 8). An excerpt:
(§1) FIG. 4 is a Western blot indicating increased hepatic insulin signaling following single intravenous injections of 5×10^8 pfu Ad Flt1 (VEGF inhibition) or Ad Fc (negative control) into adult C57Bl/6 mice. […] IR-β: b-subunit of the IR. * P≦0.05; n=5 animals each.
(§2) FIG. 8 is a digital image of a Western blot analysis.
In general terms: A western blot detects proteins with antibodies after separation by electrophoresis.

Test [1] relates to insulin receptor (IR) signaling intermediates Akt, GSK-3β, FOXO1. Kind of test: Western blot of liver extracts: phosphorylation of insulin receptor signaling intermediates. The conditions noted are these: livers from VEGF Trap-treated mice (FIG. 8).
Source text: as §1, §2

For the next test, the system named is G6PC and PEPCK. As to the kind of experiment: Quantitative PCR of hepatic gluconeogenic gene expression. The conditions noted are these: SCID mice, six weeks twice-weekly s.c. 25 mg/kg VEGF Trap vs human Fc (FIG. 9).
The next test concerns C57Bl/6 mice. Kind of test: Euglycemic, hyperinsulinemic clamp analyses. The conditions noted are these: adult male C57Bl/6 mice. An excerpt:
Adult male C57Bl/6 mice (n=8 or 9) were used. * P=0.01 ** P=0.0001 for control vs. treatment.

For a further test, the system named is HIF-2α. Kind of test: Immunoblots of hepatic HIF-2α. The conditions noted are these: C57Bl/6 mice, 14 days after single injection of 5×10^8 pfu Ad Flt1 vs Ad Fc (FIG. 11).
The subject of test [2] is db/db mice. Kind of test: Ad libidum (fed) and fasting blood glucose levels in db/db mice. The conditions noted are these: long-term twice-weekly s.c. 25 mg/kg VEGF Trap vs hFc (FIG. 28). An excerpt: FIG. 25 is a graph showing ad libidum and fasting blood glucose levels in mice. * P≦0.05 in the indicated treatment groups compared to control.
FIG. 28 is a graph showing ad libidum blood glucose levels. * P<0.04 between VEGF Trap- and hFc-treated db/db mice at the indicated time points.
FIG. 33 is a graph showing the fed and fasting blood glucose levels in db/db mice.
Db/db model. Db/db or wild-type mice received single intravenous injection of adenoviruses encoding Ad Flt (soluble VEGF receptor), Ad Fc (control antibody Fc fragment), VEGF Trap or control human Fc fragment, with or without adenovirus encoding shRNA against HIF-2α, or scrambled control shRNA. Adenovirus gives preferential and quantitative hepatocyte infection, a robust maneuver for achieving hepatic gene knockdown (Canettieri et al., (2005) Cell Metab. 2: 331; Taniguchi et al., (2005) J. Clin. Invest. 115: 718).
(§3) FIGS. 25-27 illustrate that VEGF inhibition and HIF-2α activation reverse the diabetic phenotype of db/db mice. The data of […] are from 10 week-old female db/db mice injected with 5×10^8 pfu of the indicated viruses.
FIGS. 28-29 illustrate that the chronic administration of VEGF Trap protein improves hepatic glucose tolerance in db/db mice. 10 week-old female db/db and db/+ mice (n=5) were treated with twice-weekly subcutaneous injections of 25 mg/kg VEGF Trap or control hFc. […]

Test [3] relates to db/db mice. As to the kind of experiment: Glucose tolerance test in db/db mice. The conditions noted are these: twice-weekly s.c. 25 mg/kg VEGF Trap vs hFc, 0.5 g/kg glucose i.p. (FIGS. 29-30). How it is done: FIG. 26 is a graph showing the results of glucose tolerance tests. 7 d after adenoviral infection, mice were given 0.5 g/kg glucose intraperitoneally and blood glucose levels were measured.
FIG. 29 is a graph showing the results of a glucose tolerance test in db/db mice. Mice were given 0.5 g/kg glucose intraperitoneally and blood glucose levels were measured. * P<0.03 between treatment groups at the indicated time points. Values are mean±s.e.m.
FIG. 30 is a graph showing the results of a glucose tolerance test in db/db mice. Mice were given 0.5 g/kg glucose intraperitoneally and blood glucose levels were measured. * P<0.03 between treatment groups at the indicated time points. Values are mean±s.e.m.
FIG. 32 is a graph showing the results of a glucose tolerance test in db/db mice. Mice were given 0.5 g/kg glucose intraperitoneally and blood glucose levels were measured. * P<0.02 between treatment groups at the indicated time points. Values are mean±s.e.m.
as §3
FIGS. 28-29 illustrate that the chronic administration of VEGF Trap protein improves hepatic glucose tolerance in db/db mice. […]

Test [4] relates to db/db mice. As to the kind of experiment: Plasma insulin levels by ELISA in db/db mice. The conditions noted are these: VEGF Trap vs hFc, ELISA (FIG. 31). How it is done:
FIG. 31 is a graph showing plasma insulin levels as determined by ELISA. * P=0.003 between VEGF Trap- and hFc-treated db/db mice. The hyperinsulinemia of db/db mice is corrected by VEGF Trap treatment.
FIGS. 28-29 illustrate that the chronic administration of VEGF Trap protein improves hepatic glucose tolerance in db/db mice. 10 week-old female db/db and db/+ mice (n=5) were treated with twice-weekly subcutaneous injections of 25 mg/kg VEGF Trap or control hFc.
(In general: ELISA stands for enzyme-linked immunosorbent assay.)

For the substance “VEGF Trap: Ig domain 2 from VEGFR1 fused to Ig domain 3 from VEGFR2, fused to the Fc domain of IgG1 (Regeneron)”, the blood glucose levels result in the test with C57Bl/6 and SCID mice was “lowered”. For the same substance, in the test on IRS-2, the “liver IRS-2 levels” value is “higher levels”. The “liver phospho-AKT levels” value in [1] is on record as “higher levels”. In addition, in the test with G6PC and PEPCK, the “hepatic expression of G6PC and PEPCK” value is on record as “significantly reduced”. Further, the “glucose infusion rate to maintain euglycemia” value in the test on C57Bl/6 mice (hyperinsulinemic euglycemic clamp (FIG. 7A)) is on record as “higher glucose infusion rate”. Further, in the test on C57Bl/6 mice (hyperinsulinemic euglycemic clamp (FIG. 7B)), the “insulin suppression of hepatic glucose production (insulin action in the liver)” value is on record as “increased insulin action in the liver”. Besides, the “hepatic HIF-2α stabilization” value in the test on HIF-2α is listed as “increased stabilization”. Also, the “ad libidum blood glucose levels (hyperglycemia)” value in the test with db/db mice [2] is reported as “sustained correction”. Also, the “glucose tolerance (GTT)” value with db/db mice [3] was “improved glucose tolerance; also recorded: improves”. The “plasma insulin levels (hyperinsulinemia)” value with db/db mice [4] was “sustained correction; also recorded: corrected”.
